Measured values published in patent publication US20170333560A1, “Pharmaceutical Composition That Includes A Neutral Carrier Treated With Energy And Related Methods Of Treatment” (priority 2016, published 2017).

Tests used:
[1] = test system: male albino Wistar rats; test: Porsolt forced swimming test; format: in vivo, rat; conditions: compared to controls; single intragastric dose
Method: (§1) A study was conducted to evaluate the antidepressant effect of the claimed drug, formulated as a water solution (liquid dosage form) of the activated (potentized) energy-treated carrier, obtained by multiple consecutive dilution of the initial matrix solution in an aqueous-alcoholic diluent, combined with external mechanical impact—shaking of each resulting dilution, to a degree of 100^200, equivalent to a centesimal (C200) homeopathic dilution (wherein the energy treatment of the initial neutral carrier has been accomplished by exposing it to an electric current caused by a difference of potentials being applied to electrodes placed in the initial liquid carrier and which is proportional in amplitude to an amplified combined, summed up signal, formed by summing the resultant signals—biopotential differences of individual referential derivations recorded in five healthy donors using the internationally recognized 10-20 system, which involves 19 active recording electrodes placed in regular positions all over the scalp and one reference electrode located on the ear-lobe)—further referred to as AP drug, using standard experimental approaches—by examining animals' depression-like behavior (behavioral despair) in the Porsolt forced swimming test and Nomura's model employing forced-rotating-wheel swim test. […]

[2] = test system: male albino Wistar rats; test: Nomura forced-rotating-wheel swim test; format: in vivo, rat; conditions: compared to controls; single intragastric dose; 10 minutes
Method: as §1

Structure (SMILES): CN(C)CCC=C1c2ccccc2CCc2ccccc21 [reference compound, amitriptyline]
- Reduction of immobility time [1]: 56%
- Increase of number of wheel rotations [2]: 67%
